Key:
[1] = tested on: hGBM SCCs and FCCs; test: Cell death by flow cytometry (propidium iodide incorporation, cleaved caspase 3); format: cell-based, human; settings: for apoptotic cell death (cleaved caspase 3) in SCCs: unlike FCCs, 24 hours of treatment
Description: Propidium iodide incorporation and expression of cleaved caspase 3 were used to compare the effects of glucose restriction and/or mitochondrial function inhibition (by rotenone or metformin treatment). Briefly, cells were labeled with CellTrace dye and grown in complete medium for 5-7 days before being placed in high glucose (HG; >500 mg/dL) or physiological glucose conditions (PG; 90-110 mg/dL) and/or treated with rotenone (0.5-1 μM) or metformin (10-20 mM) for 24 hours. Media glucose concentrations were monitored daily and maintained constant throughout the experiments by adding glucose to the cell cultures as needed, which prevented the glucose supply exhaustion that might have occurred due to FCCs' higher division rate.
(§1) Propidium iodide and cleaved caspase 3 staining were quantified using flow cytometry. The effects of restricting glucose along with mitochondrial targeting using rotenone or metformin were investigated using the CyQUANT™ assay. Cells were plated at 60,000 cells per well in 96-well plates and exposed to the treatments alone or in combination (physiological glucose, 0.5 μM rotenone, and 10 mM metformin). CyQUANT™ binding dye was added to each well and incubated for 30 min at 37° C. before being quantified using Biotek™ Cytation™ 3 Cell Imaging Multi-Mode Reader.

[2] = tested on: L0, L1, L2 GBM patient-derived cell line xenografts; test: In vivo survival with FABP7 inhibitor and/or 2-DG, Kaplan-Meier and Cox frailty model; set-up: species or system NOD-SCID mice; settings: Cox frailty model, all three GBM cell lines grouped
[3] = target: T1, FABP3 (Homo sapiens, UniProt P05413); test: C16-BODIPY fatty acid uptake by flow cytometry, FABP3 inhibition; format: cell-based; settings: SCCs; 250 nM FABP3 inhibitor
T1 construct: endogenous in cells; host or cells: patient-derived GBM cells (SCCs and FCCs)
T1 sequence (P05413 whole entry): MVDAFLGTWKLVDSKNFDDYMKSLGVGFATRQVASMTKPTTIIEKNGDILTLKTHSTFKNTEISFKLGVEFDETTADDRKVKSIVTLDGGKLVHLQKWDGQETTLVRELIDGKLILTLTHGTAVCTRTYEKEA
Description: (§2) Each cell line was labeled with CellTrace dye and grown for 5-7 days. Cells were then dissociated and treated with different BODIPY® FLC16 (Molecular probes) concentrations and incubation times described below. Fatty acids conjugated to C16-BODIPY fluorophore undergo native-like metabolism and transport. Dose response was performed with 0, 0.5, 2.5, 5, 10, 25, and 50 nM BODIPY, and the time course was done at a concentration of 5 nM for 1, 4, 5, 10, and 15 min. The cells were then washed and fixed with 4% paraformaldehyde. To determine the amount of fatty acid uptake, cells were analyzed by flow cytometry on a BD LSRII Flow Cytometer. Fatty acid transporter inhibitors SB-FI-26 (Cayman Chemicals, #14191) and BMS309403 (Millipore, #34310) were used to inhibit FABP7 (Kaczocha et al., 2014) and FABP3 (Furuhashi et al., 2007), respectively.

[4] = target: T2, FABP7 (Homo sapiens, UniProt O15540); test: C16-BODIPY fatty acid uptake by flow cytometry, FABP7 inhibition; format: cell-based; settings: SCCs; 200 nM FABP7 inhibitor, L1
T2 construct: endogenous in cells; host or cells: L1 patient-derived GBM cell line, slow-cycling (SCC) and fast-cycling (FCC) cells
T2 sequence (O15540 whole entry): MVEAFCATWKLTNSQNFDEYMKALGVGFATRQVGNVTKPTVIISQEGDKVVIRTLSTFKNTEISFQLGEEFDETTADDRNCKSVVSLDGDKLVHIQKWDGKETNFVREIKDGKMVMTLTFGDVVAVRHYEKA
Description: as §2

[5] = tested on: L1 SCCs and FCCs; test: CyQUANT proliferation assay, FABP7 inhibitor with high or physiological glucose; format: cell-based, human; settings: 5 days
From the text: (FIG. 7A) GSEA comparing RNA sequencing results between SCCs and FCCs (n=3 biological replicates, L0-1-2) for the fatty acid metabolism gene signature. FDR, false discovery rate; NES, normalized enrichment score; Nom., nominal. (FIG. 7B) Results for qRT-PCR of genes differentially expressed between SCCs and FCCs using the RT2 Profiler PCR Array for Human Fatty Acid Metabolism. Changes in transcript levels are given as percent change relative to FCCs (n=3-8, p<0.05, one sample t-test). (FIG. 7C) FABP7 expression in brain (n=4), breast (n=336), colorectal (n=374), lung (n=117), ovarian (n=242), and pancreatic (n=20) cancer cell lines (**, p<0.005, ****, p<0.0001, one-way ANOVA). (FIG. 7D) Evaluation of the Bredel dataset indicated higher expression of FABP7 in glioblastoma (n=27) compared to non-malignant (n=4) brain tissue (**, p<0.005, t-test). […] (FIG. 7J) C16-BODIPY uptake was measured in L1 GBM line SCCs or FCCs cultured with or without 200 nM FABP7 inhibitor (FABP7i, each condition, n=3, *** p<0.0001, linear regression). […] Cell proliferation was assessed using CyQUANT assays 5 days after treatment (n=2-3, * p<0.05, one-way ANOVA with Tukey post-test). (FIG. 7L) C16-BODIPY uptake was measured in the L1 wild-type (WT) and CRISPR-FABP7 (crFABP7) cell line (each condition, n=3, * p<0.05, linear regression). […]

[6] = tested on: GBM unsorted and SCC populations; test: Tumor sphere migration assay; format: cell-based, human
Description: For quantification of cell migration, tumor spheres were plated onto a laminin/poly-D-lysine coated surface at low density and in the presence of growth factors, FABP7 inhibitor (SB-FI-26), or DMSO as a solvent control. Images were taken from the same spheres 2 hours and 24 hours after plating with a Leica DM IL microscope equipped with a DFC3000G camera and Leica application suite X software. The greatest distance of outgrowing cells was measured using ImageJ, and migration distance was calculated as the difference between the two time points. Only spheres with a diameter greater than 50 μm, 2 hours after plating, were used to measure migration distance.

[7] = tested on: GBM xenograft tumor cell invasion; test: In vivo tumor cell invasion after FABP7 inhibition; set-up: species or system NOD-SCID mice; settings: in vivo inhibition of FABP7
Description: Tumor invasion was measured using human-specific nestin labeling (Millipore, MAB5326). Full images of brain sections were obtained by multiple gray scale imaging acquired using Spot Advanced software (Spot Imaging Solutions), merged into full images, and inverted into black-and-white images using Photoshop CS6 (Adobe Systems). Staining threshold levels were adjusted in Image J software to distinguish tumor from background, as previously described (Siebzehnrubl F A, et al. (2013) EMBO Mol Med: 1196-1212). Invasion index was obtained by calculating the ratio of the squared-perimeter distance over the area (P2/A). Dissociated tumors are associated with higher invasion indices compared to more spherical tumors characterized by lower invasion indices. High-power images of stained tissues were taken using an IX81-DSU spinning disk confocal microscope (Olympus) fitted with a 60x water immersion objective, and all images were captured as z-stacks (0.5 μm steps). For 3D imaging, pictures were acquired using a UPLSAPO 60x water objective and Hamamatsu ORCA-AG Camera. Images were captured as z-stacks (0.5 μm steps). All image analyses and 3D surface reconstructions utilized the 3i SlideBook v4.2 Software (with Deconvolution Module). Image capture settings were standardized across samples. 3D surface reconstruction rendering cut-off values were also standardized in the 3i SlideBook software.

[8] = tested on: hGBM cells; test: CyQUANT assay, glucose restriction combined with mitochondrial targeting; format: cell-based, human; settings: physiological glucose plus 0.5 μM rotenone or 10 mM metformin, 24 hours
Description: as §1

[9] = tested on: L1 SCC, FCC or total unsorted intracranial xenografts; test: In vivo rotenone treatment of intracranially implanted animals, survival; set-up: species or system NOD-SCID mice
From the text: Adult male NOD-SCID mice (7-15 weeks old) were used for in vivo tumor implants following NIH and institutional (IACUC) guidelines and regulations for animal care and handling. The mice colonies were maintained at the University of Florida's animal facility. Animals were randomized to cages following implantation. For in vivo tumor invasion assay, FACS cells were intracranially implanted as previously described (Deleyrolle L P, et al. (2011) Brain 134:1331-43; Siebzehnrubl F A, et al. (2013) Hoang-Minh et al., EMBO Mol Med: 1196-1212) and invasion assay was performed 10 weeks post implant. For in vivo TMZ treatment, animals were implanted with 100,000 cells immediately after cell sorting. Tumor-bearing animals were intraperitoneally treated with 5 injections of 20 mg/kg TMZ over 5 days at 3 (hGBM L0) or 4 (hGBM L2) weeks post implantation. For in vivo restricted glucose and mitochondria targeting experiments, animals were xenografted with SCCs or FCCs and subjected to either a high carbohydrate control diet or a custom supplemented high fat/low carbohydrate dietary regimen (sHFLC) (Martuscello R T, et al. (2016) Clin Cancer Res. 22:2482-95). Each group received vehicle or rotenone treatment (0.5 mg/kg i.p, once a week for 6 weeks).

SMILES: O=CC[C@@H](O)[C@H](O)[C@H](O)CO [2-DG, 2-deoxyglucose]
- cell death, sensitivity of SCCs versus FCCs to glycolysis inhibition ([1]; 0, 5 or 20 mM for 24 hours): SCCs are less sensitive to this pharmacological inhibition than FCCs
- average (main) effect HR [2]: 0.74
- mortality hazard ratio (HR) versus control group [2]: 0.84

SMILES: CCc1c(-c2ccccc2)c(-c2ccccc2)nn1-c1ccccc1-c1cccc(OCC(=O)O)c1 [FABP3 inhibitor]
- uptake of fluorescently labeled fatty acid C16-BODIPY [3]: significantly decreased

SMILES: O=C(O)C1[C@H](c2ccccc2)C(C(=O)Oc2cccc3ccccc23)[C@H]1c1ccccc1 (stereo partly shown) [SB-FI-26]
- uptake of fluorescently labeled fatty acid C16-BODIPY [4]: significantly decreased
- FCC growth ([5]; L1 FCCs, decreased glucose plus 200 nM FABP7 inhibitor): did not result in any additional growth inhibitory effect on FCCs
- SCC survival/proliferation ([5]; L1 SCCs, lower glucose plus 200 nM FABP7 inhibitor): significantly inhibited
- cell migration ([6]; FACS-sorted SCCs, all cell lines tested): significant decrease of cell migration
- cell migration ([6]; unsorted total GBM populations, all three lines, 1 and 10 μM): significantly reduced overall cell migration
- tumor cell invasion in vivo [7]: decreased of cell invasion
- average (main) effect HR [2]: 0.38
- mortality hazard ratio (HR) versus control group [2]: 0.43

SMILES: CN(C)C(=N)N=C(N)N [metformin]
- apoptotic cell death (cleaved caspase 3) in SCCs [1]: significant increase in apoptotic cell death
- GBM cell survival, combination with glucose deprivation [8]: greatest inhibitory effect on GBM cell survival

SMILES: C=C(C)[C@H]1Cc2c(ccc3c2O[C@@H]2COc4cc(OC)c(OC)cc4[C@@H]2C3=O)O1 [rotenone]
- apoptotic cell death (cleaved caspase 3) in SCCs [1]: significant increase in apoptotic cell death
- survival ([9]; FCC-implanted animals, 0.5 mg/kg i.p. once a week): did not gain any survival benefit
- survival ([9]; SCC-implanted animals, 0.5 mg/kg i.p. once a week, versus vehicle): significant increase in survival
- survival ([9]; animals implanted with total unsorted population): improved survival
- GBM cell survival, combination with glucose deprivation [8]: greatest inhibitory effect on GBM cell survival

— patent US20220054610A1, “SLOW-CYCLING CELL-RNA BASED NANOPARTICLE VACCINE TO TREAT CANCER” (University of Florida Research Foundation, Inc., priority 2018, published 2022)
